Measurements from the supplement of paper PMC11061612.

What was measured:
COLO-679 (Melanoma) = test: Bliss excess, mean over the matrix (fraction); higher = more synergy
In short: (§1)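 Cell lines in DMEM/F12 or RPMI with 10% FBS were plated in 1536-well plates, held 24 hours at 37°C, 5% CO2, then given two-drug dose matrices for 72 hours (DMSO typically 0.2%). Viability was read by CellTiter-Glo 2.0 luminescence and scaled as inhibition from 0 (vehicle wells) to 1 (blank wells). Combination Emax is the second-highest inhibition in the matrix; Bliss excess is observed combination effect minus expected EA + EB − EA·EB, EA and EB being single-agent effects.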

[1] = tested on: Ca-Ski (Cervical Carcinoma); test: as above
In short: as §1

[2] = tested on: A4-Fuk (B-Lymphoblastic Leukemia); test: combination Emax (second highest fraction inhibited in the dose matrix, 72 h); higher = more inhibition; extreme values may be limits of the assay
In short: as §1

[3] = tested on: ALL-SIL (T-Lymphoblastic Leukemia); test: as above
In short: as §1

[4] = tested on: CADO-ES1 (Ewing's Sarcoma); test: as above
In short: as §1

[5] = tested on: Ca-Ski (Cervical Carcinoma); test: as above
In short: as §1

[6] = tested on: DU-145 (Prostate Carcinoma); test: as above
In short: as §1

[7] = tested on: EJM (Plasma Cell Myeloma); test: as above
In short: as §1

[8] = tested on: HCC2998 (Colorectal Carcinoma); test: as above
In short: as §1

[9] = tested on: KOPN-8 (B-Lymphoblastic Leukemia); test: as above
In short: as §1

[10] = tested on: ME-180 (Cervical Carcinoma); test: as above
In short: as §1

[11] = tested on: ML-2 (Acute Myeloid Leukemia); test: as above
In short: as §1

[12] = tested on: MV-4-11 (Acute Myeloid Leukemia); test: as above
In short: as §1

[13] = tested on: NCI-H1092 (Small Cell Lung Carcinoma); test: as above
In short: as §1

[14] = tested on: NCI-H2122 (Lung Adenocarcinoma); test: as above
In short: as §1

[15] = tested on: NCI-H522 (Lung Adenocarcinoma); test: as above
In short: as §1

[16] = tested on: NCI-H650 (Lung Adenocarcinoma); test: as above
In short: as §1

[17] = tested on: OACM5-1 (Esophageal Adenocarcinoma); test: as above
In short: as §1

SK-N-AS (Neuroblastoma) = test: as above
In short: as §1

[18] = tested on: SW872 (Other Solid Carcinomas); test: as above
In short: as §1
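Wherever Bliss excess, mean over the matrix is given: after 72 h of two-drug dosing.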

Row | Compound | Bliss excess (COLO-679 (Melanoma)) | Bliss excess [1] | combination Emax [2] | combination Emax [3] | combination Emax [4] | combination Emax [5] | combination Emax [6] | combination Emax [7] | combination Emax [8] | combination Emax [9] | combination Emax [10] | combination Emax [11] | combination Emax [12] | combination Emax [13] | combination Emax [14] | combination Emax [15] | combination Emax [16] | combination Emax [17] | combination Emax (SK-N-AS (Neuroblastoma)) | combination Emax [18]
1 | CC(=O)c1c(C)c2cnc(Nc3ccc(N4CCNCC4)cn3)nc2n(C2CCCC2)c1=O [Palbociclib] + CC1(C)CCC(CN2CCN(c3ccc(C(=O)NS(=O)(=O)c4ccc(NCC5CCOCC5)c([N+](=O)[O-])c4)c(Oc4cnc5[nH]ccc5c4)c3)CC2)=C(c2ccc(Cl)cc2)C1 [Venetoclax] (first compound max 10 µM, 7x7, partner max 1 µM) | -0.0676 | -0.0543 | 0.552 | 0.76 | 0.678 | 0.131 | 0.0454 | 0.159 | 0.416 | 0.958 | 0.0846 | 0.949 | 1 | 0.222 | 0.688 | 0.127 | 0.172 | 0.479 | 0.125 | 0.0843
2 | CC(=O)c1c(C)c2cnc(Nc3ccc(N4CCNCC4)cn3)nc2n(C2CCCC2)c1=O [Palbociclib] + Cc1c2c(nn1C)CSCc1cc(n(C)n1)CSc1cc(c3ccccc3c1)OCCCc1c(C(=O)O)n(C)c3c-2c(Cl)ccc13 [AZD5991] (first compound max 10 µM, 7x7, partner max 1 µM) | -0.107 | -0.0239 | 1 | 0.446 | 0.46 | 0.342 | 0.107 | 0.443 | 0.905 | 0.917 | 0.151 | 1 | 1 | 0.608 | 0.773 | 0.57 | 0.244 | 0.932 | 0.461 | 0.228
3 | CC(=O)c1c(C)c2cnc(Nc3ccc(N4CCNCC4)cn3)nc2n(C2CCCC2)c1=O [Palbociclib] + Cn1cnc2c(F)c(Nc3ccc(Br)cc3Cl)c(C(=O)NOCCO)cc21 [Selumetinib] (first compound max 10 µM, 7x7, partner max 10 µM) | 0.0157 | -0.0701 | 0.732 | 0.38 | 0.265 | 0.301 | 0.12 | 0.182 | 0.781 | 0.801 | 0.297 | 0.869 | 0.955 | 0.11 | 0.954 | 0.127 | 0.36 | 0.477 | 0.577 | 0.169
4 | COc1cccc(OCCCN)c1-c1cc(Nc2cnc(C#N)cn2)n[nH]1 [Prexasertib] + C=CCn1c(=O)c2cnc(Nc3ccc(N4CCN(C)CC4)cc3)nc2n1-c1cccc(C(C)(C)O)n1 [AZD1775] (first compound max 1 µM, partner max 1 µM) | 0.0059 | 0.0816 | 0.906 | 1 | 0.946 | 0.874 | 0.691 | 0.954 | 0.984 | 0.995 | 0.652 | 1 | 1 | 0.756 | 0.984 | 0.676 | 0.732 | 0.802 | 1 | 0.933
5 | COc1cccc(OCCCN)c1-c1cc(Nc2cnc(C#N)cn2)n[nH]1 [Prexasertib] + CCc1c2c(nc3ccc(O)cc13)-c1cc3c(c(=O)n1C2)COC(=O)[C@]3(O)CC [SN-38] (first compound max 1 µM, 7x7, partner max 0.3 µM) | -0.111 | 0 | 0.972 | 1 | 0.996 | 0.983 | 0.807 | 0.952 | 1 | 1 | 0.948 | 1 | 1 | 0.899 | 0.984 | 0.8 | 0.815 | 0.854 | 0.997 | 1
6 | COc1cccc(OCCCN)c1-c1cc(Nc2cnc(C#N)cn2)n[nH]1 [Prexasertib] + CN(C)CCCOc1ccc(-c2ccc3ncc4c(c3c2)n(C2CCOCC2)c(=O)n4C)cn1 [AZD0156] (first compound max 1 µM, 7x7, partner max 1 µM) | 0.0127 | -0.0373 | 0.885 | 0.958 | 0.956 | 0.741 | 0.624 | 0.93 | 0.969 | 0.947 | 0.324 | 1 | 0.998 | 0.74 | 0.975 | 0.385 | 0.671 | 0.624 | 1 | 0.863
7 | COc1cccc(OCCCN)c1-c1cc(Nc2cnc(C#N)cn2)n[nH]1 [Prexasertib] + C[C@@H]1COCCN1C2=NC(=NC(=C2)C3(CC3)[S@](=N)(=O)C)C4=C5C=CNC5=NC=C4 [AZD6738] (first compound max 1 µM, 7x7, partner max 10 µM) | -0.0836 | -0.0134 | 0.879 | 0.993 | 0.918 | 0.728 | 0.666 | 0.947 | 0.967 | 0.977 | 0.485 | 1 | 1 | 0.698 | 0.99 | 0.388 | 0.647 | 0.621 | 0.976 | 0.884
8 | COc1cccc(OCCCN)c1-c1cc(Nc2cnc(C#N)cn2)n[nH]1 [Prexasertib] + Cc1cc2ncnn2cc1Nc1ncc2c(n1)n(C1CCOCC1)c(=O)n2C [AZD7648] (first compound max 1 µM, 7x7, partner max 10 µM) | -0.0157 | -0.0159 | 0.89 | 0.983 | 0.94 | 0.794 | 0.649 | 0.941 | 0.954 | 0.966 | 0.411 | 1 | 1 | 0.707 | 0.984 | 0.385 | 0.653 | 0.643 | 0.984 | 0.867
9 | COc1cccc(OCCCN)c1-c1cc(Nc2cnc(C#N)cn2)n[nH]1 [Prexasertib] + O=C(c1cc(Cc2n[nH]c(=O)c3ccccc23)ccc1F)N1CCN(C(=O)C2CC2)CC1 [Olaparib] (first compound max 1 µM, 7x7, partner max 10 µM) | -0.0407 | -0.0243 | 0.919 | 0.992 | 0.943 | 0.787 | 0.603 | 0.969 | 0.957 | 0.961 | 0.429 | 1 | 0.998 | 0.67 | 1 | 0.418 | 0.708 | 0.641 | 0.995 | 0.937
10 | CCc1c2c(nc3ccc(O)cc13)-c1cc3c(c(=O)n1C2)COC(=O)[C@]3(O)CC [SN-38] + CN(C)CCCOc1ccc(-c2ccc3ncc4c(c3c2)n(C2CCOCC2)c(=O)n4C)cn1 [AZD0156] (first compound max 0.3 µM, 7x7, partner max 1 µM) | -0.0767 | 0.0459 | 0.923 | 0.995 | 1 | 0.99 | 0.742 | 0.903 | 0.867 | 0.957 | 0.892 | 1 | 1 | 0.323 | 0.843 | 0.43 | 0.607 | 0.763 | 0.737 | 0.98
11 | Cn1cnc2c(F)c(Nc3ccc(Br)cc3Cl)c(C(=O)NOCCO)cc21 [Selumetinib] + C=CCn1c(=O)c2cnc(Nc3ccc(N4CCN(C)CC4)cc3)nc2n1-c1cccc(C(C)(C)O)n1 [AZD1775] (first compound max 10 µM, partner max 1 µM) | -0.0285 | 0.0199 | 0.948 | 0.881 | 0.294 | 0.711 | 0.239 | 0.867 | 0.806 | 0.995 | 0.478 | 0.994 | 0.915 | 0.371 | 0.985 | 0.177 | 0.693 | 0.642 | 0.817 | 0.29
12 | Cn1cnc2c(F)c(Nc3ccc(Br)cc3Cl)c(C(=O)NOCCO)cc21 [Selumetinib] + CC(C)n1c(=O)n(C)c2cnc3cc(F)c(-c4ccc(OCCCN5CCCCC5)nc4)cc3c21 [AZD1390] (first compound max 10 µM, 7x7, partner max 0.3 µM) | -0.0416 | -0.0032 | 0.404 | 0.25 | 0.175 | 0.222 | 0.16 | 0.0932 | 0.719 | 0.596 | 0.209 | 0.78 | 0.711 | 0.0809 | 0.864 | 0.0811 | 0.243 | 0.209 | 0.422 | 0.203
13 | Cn1cnc2c(F)c(Nc3ccc(Br)cc3Cl)c(C(=O)NOCCO)cc21 [Selumetinib] + CCN(CCO)CCCOc1ccc2c(Nc3cc(CC(=O)Nc4cccc(F)c4)[nH]n3)ncnc2c1 [AZD2811] (first compound max 10 µM, 7x7, partner max 1 µM) | -0.0381 | 0.0553 | 0.661 | 0.961 | 0.276 | 0.54 | 0.203 | 0.175 | 0.792 | 1 | 0.245 | 1 | 0.974 | 0.215 | 0.962 | 0.171 | 0.387 | 0.44 | 0.496 | 0.285
